The test relates to fatigue animal models such as mice and rats. Description: Fatigue animal models such as mice and rats (summary of effective intake). In kind it is in vivo. The method, then: Accordingly, the amount of andrographolide to be contained in the composition of the present invention is 0.01-500 mg per kilogram of body weight, preferably 0.1-50 mg per kilogram of body weight, more preferably 0.1-10 mg per kilogram of body weight, especially preferably 0.25-10 mg per kilogram of body weight, per daily amount of the composition to be taken by animals including humans. Especially in the case in which andrographolide is to be orally administered to humans (adult) to obtain anti-fatigue action, it is generally suitable to administer 0.1-100 mg of andrographolide, preferably 0.1-50 mg, more preferably 0.1-10 mg, especially preferably 0.25-10 mg, per daily amount of andrographolide to be taken.

The structures appear in SMILES notation.

Take `C=C1CC[C@@H]2[C@](C)(CO)[C@H](O)CC[C@@]2(C)[C@@H]1C/C=C1/C(=O)OC[C@H]1O` [andrographolide]: the “intake producing desired anti-fatigue action” value runs as follows: (taken in advance or during fatigue stress to prevent or reduce mental, physical and organ fatigue) 0.25-200 mg per kilogram of body weight; (taken in to promote recovery from physical fatigue already developed) 0.5-8 mg per kilogram of body weight.

The values are drawn from US8507547B2, “Anti-fatigue agents and oral compositions containing andrographolide as active ingredient” (Suntory Holdings Limited, priority 2007, dated 2013).
